# Measurements taken from US20240238458A1, “COMPOUNDS TARGETING FIBROBLAST-ACTIVATION PROTEIN AND METHODS OF USE THEREOF” (Purdue Research Foundation, priority 2021, published 2024).
# Test system: phosphorylation of Akt
# Test: Inhibition of phosphorylation of Akt by FAP5-PI3K inhibitors in TGF-β1 stimulated primary HLF (western blot)
# Type: cell-based
# Details: 24 hours and 48 hours of incubation, compounds with non-releasable linkers
# Description: Primary HLF with passage number #˜8 were seeded in Dulbecco's Modified Eagle Medium (DMEM) with 10% fetal bovine serum (FBS) (˜100,000 cells/well) in 12 well plates to achieve ˜80% confluency. The cells were then starved in DMEM with 0.4% FBS for 24 hours, followed by stimulation by 10 ng/mL transforming growth factor-beta 1 (TGF-β1) for 24 hours.
# After stimulation, cells were incubated with the FAP5-PI3K inhibitors for 2 hours, followed by replacement of culture media containing 2 ng/mL TGF-β1 and incubated for 24 hours (see FIG. 21) and 48 hours (see FIG. 22). All wells are added with 0.1% of DMSO as vehicle.
# Cells were detached using trypsin and lysed with lysis buffer, proteins from cells were extracted for western blot analysis.
structure (smiles),measurement,value
COc1ncc(-c2ccc3nccc(-c4ccc(COC(=O)NCCNC(=O)CCc5cccc6c5CN(C(=O)C[C@@H]5C[C@@H](C(=O)N7CC(F)(F)C[C@H]7C#N)NC5=O)C6)nc4)c3c2)cc1NS(=O)(=O)c1ccc(F)cc1F [FAP5-Carbamate-PI3ki],inhibition of phosphorylation of Akt (pAkt normalized to tAkt),consistently performed better than FAP5-Ester-PI3Ki and FAP5-PI3Ki-NR
